Source: US20250235450A1, “COMBINATION THERAPIES COMPRISING APREMILAST AND TYK2 INHIBITORS” (Celgene Corporation, priority 2019, published 2025)
Like-named read-outs stand apart in the source and are kept apart here.

What was measured:
LPS stimulated PBMCs = test: Viability of LPS stimulated PBMCs; type: cell-based, human; parameters: key: ↑: Induced; —: No change; ↓: Reduced
[1] = tested on: anti-CD3/anti-CD28 (Th0) or anti-CD3/anti-CD28, IL-1β, IL-6 and IL-23 (Th17) stimulated whole blood; test: Ex-vivo TruCulture tube assay: cytokine production in stimulated whole blood; type: cell-based, human
Description: Whole blood was received through the Celgene Donor program after informed consent and donor deidentification. All volunteers were healthy and were not on any medications for at least 72 hours prior to the blood draw. Blood was collected in sodium heparin tubes. The assay was started within 2 hours of the blood draw.
An ex-vivo stimulation of healthy donor human whole blood was performed under two different stimulation conditions. Condition Th0 was a stimulation with TruCulture® tubes containing anti-CD3/anti-CD28. Condition Th17 was a stimulation with TruCulture® tubes containing anti-CD3/anti-CD28 plus IL-1β, IL-6 and IL-23. Whole blood was separated into 15 milliliter conical tubes and pre-treated with DMSO, apremilast alone, BMS-986165 alone or BMS-986165 combined with apremilast. Final concentrations were 0.2% DMSO, 1 μM for apremilast alone, 1 μM, 0.1 μM, 0.01 μM and 0.001 μM BMS-986165 alone and in combination with 1 μM apremilast. Blood was mixed well and then incubated in a 37° C./5% CO2 incubator for 1 hour.
The anti-CD3/anti-CD28 (200 ng/ml and 330 ng/ml final concentrations respectively) TruCulture® tubes were thawed on the bench top for 30 minutes and then labeled. Plungers were pressed and then broken off. TruCulture® tubes were placed in a rack standing upright such that the plunger side is pointing down in the rack and the tube-cap is pointing up. While blood was incubating with compound Human recombinant IL-6, IL-1β and IL-23 were added to all Th17 tubes in the following concentrations: 120 ng IL-6, 120 ng IL-1b and 150 ng IL-23. One ml of the pre-treated whole blood was placed in each tube, using sterile pyrogen-free pipette tips. The cap was replaced and the contents of the tube were mixed by inverting 3 times. The tubes were immediately placed in a 37° C. heat block and incubated for 42 hours (tube-cap end). After the 42 hours the tubes were removed from the heat block, tops were unscrewed and 250 μl of the supernatant was removed and transferred into three 96-well polypropylene plates. Samples were immediately frozen at −80° C. The supernatants were then thawed at room temperature and tested neat for cytokine production by Luminex Multi-Plex MagPix technology (Millipore) or IL-22 by ELISA (Abcam). The manufacturer's procedures were followed accordingly.
Data processing for the cytokine analysis was done using Milliplex Analyst (Millipore), and raw data was exported to Excel template for the cytokine analysis. Data from the template was plotted using GraphPad Prism 7.0 (GraphPad Software, Inc., La Jolla, CA) and expressed as pg/ml or % of control. Statistical analysis was also performed using One Way Anova and Dunnett's Post Test.
To evaluate the combinatory effect of apremilast and BMS-986165, data from the two independent treatments were analyzed by comparing the combinatory response against the theoretical additive response of the two agents. The expected additive effect of two agents (A and B) was calculated using the fractional product method: (fu)A,B=(fu)A×(fu)B; where fu=fraction unaffected by treatment.

[2] = Th0, 0.01 μM BMS-986165 (combination: + 1 μM apremilast)
[3] = Th0, 0.1 μM BMS-986165 (combination: + 1 μM apremilast)
[4] = Th17, 0.01 μM BMS-986165 (combination: + 1 μM apremilast)
[5] = Th17, 0.1 μM BMS-986165 (combination: + 1 μM apremilast)

For `[2H]C([2H])([2H])NC(=O)c1nnc(NC(=O)C2CC2)cc1Nc1cccc(-c2ncn(C)n2)c1OC` [BMS-986165, 6-(cyclopropanecarboxamido)-4-((2-methoxy-3-(1-methyl-1H-1,2,4-triazol-3-yl)phenyl)amino)-N-(methyl-d3)pyridazine-3-carboxamide], the Viability (LPS stimulated PBMCs) was “—”, the “increase of GM-CSF, statistical significance” value ([1]; 0.1 μM BMS-986165 (Th0 and Th17) and 1 μM (Th17)) was “significant” and the inhibition at 0.01 µM ([1]; Homo sapiens, Th0, 0.01 μM BMS-986165, read-out: inhibition of IL-22) was 16%. The inhibition at 0.1 µM ([1]; Homo sapiens, Th0, 0.1 μM BMS-986165, read-out: inhibition of IL-22) was 86%, the inhibition at 1 µM ([1]; Homo sapiens, Th0, 1 μM BMS-986165, read-out: inhibition of IL-22) was 91% and the inhibition at 0.001 µM ([1]; Homo sapiens, Th17, 0.001 μM BMS-986165 (combination: + 1 μM apremilast), read-out: inhibition of IL-17F) was 31%. It also gave an inhibition at 0.01 µM ([1]; Homo sapiens, Th17, 0.01 μM BMS-986165 (combination: + 1 μM apremilast), read-out: inhibition of IL-17F) of 34%, an inhibition at 0.1 µM ([1]; Homo sapiens, Th17, 0.1 μM BMS-986165 (combination: + 1 μM apremilast), read-out: inhibition of IL-17F) of 70% and an inhibition at 1 µM ([1]; Homo sapiens, Th17, 1 μM BMS-986165 (combination: + 1 μM apremilast), read-out: inhibition of IL-17F) of 95%. The inhibition at 1 µM ([1]; Homo sapiens, Th17, 1 μM BMS-986165, read-out: inhibition of TNF-α) was 68%, the “increase in TNF-α expression” value ([1]; Th0, 0.001 μM BMS-986165) was 21% and the “increase of GM-CSF” value ([1]; Th0, 0.001 μM BMS-986165) was 19%. The “increase in TNF-α expression” value ([1]; Th0, 0.01 μM BMS-986165) was 43%, the “increase of GM-CSF” value ([1]; Th0, 0.01 μM BMS-986165) was 36% and the “CCL20 % of Control” value [1, 2] was 82.7 % of Control. For the same compound, the “GM-CSF % of Control” value [1, 2] was 136.3 % of Control, the “IFN-γ % of Control” value [1, 2] was 100.2 % of Control and the “IL-1β % of Control” value [1, 2] was 113.5 % of Control. For the same compound, the “IL-2 % of Control” value [1, 2] was 120.1 % of Control, the “IL-4 % of Control” value [1, 2] was 122.8 % of Control and the “IL-5 % of Control” value [1, 2] was 153.1 % of Control. The “IL-6 % of Control” value [1, 2] was 149.3 % of Control, the “IL-10 % of Control” value [1, 2] was 101.5 % of Control and the “IL-13 % of Control” value [1, 2] was 146.9 % of Control. The “IL-17A % of Control” value [1, 2] was 83.5 % of Control, the “IL-17F % of Control” value [1, 2] was 68.5 % of Control and the “IL-21 % of Control” value [1, 2] was 107.6 % of Control. For the same compound, the “IL-22 % of Control” value [1, 2] was 84.1 % of Control, the “IL-23 % of Control” value [1, 2] was 101.8 % of Control and the “TNF-α % of Control” value [1, 2] was 143.1 % of Control. The “increase in TNF-α expression” value ([1]; Th0, 0.1 μM BMS-986165) was 61%, the “increase of GM-CSF” value ([1]; Th0, 0.1 μM BMS-986165) was 110% and the “CCL20 % of Control” value [1, 3] was 106.4 % of Control. For the same compound, the “GM-CSF % of Control” value [1, 3] was 210.5 % of Control, the “IFN-γ % of Control” value [1, 3] was 80.9 % of Control and the “IL-1β % of Control” value [1, 3] was 113.2 % of Control. The “IL-2 % of Control” value [1, 3] was 187.4 % of Control, the “IL-4 % of Control” value [1, 3] was 114.7 % of Control and the “IL-5 % of Control” value [1, 3] was 178.6 % of Control. The “IL-6 % of Control” value [1, 3] was 124.0 % of Control, the “IL-10 % of Control” value [1, 3] was 33.8 % of Control and the “IL-13 % of Control” value [1, 3] was 205.9 % of Control. The “IL-17A % of Control” value [1, 3] was 73.0 % of Control, the “IL-17F % of Control” value [1, 3] was 28.3 % of Control and the “IL-21 % of Control” value [1, 3] was 94.5 % of Control. For the same compound, the “IL-22 % of Control” value [1, 3] was 13.4 % of Control, the “IL-23 % of Control” value [1, 3] was 89.9 % of Control and the “TNF-α % of Control” value [1, 3] was 160.7 % of Control. For the same compound, the “increase of GM-CSF” value ([1]; Th0, 1 μM BMS-986165) was 31%, the “inhibition of TNF-α cytokine expression” value ([1]; Th0, 1 μM BMS-986165) was 66% and the IL-17A levels ([1]; Th0, 1 μM BMS-986165 (combination: + 1 μM apremilast), control 138 pg/mL) was 97 pg/mL. For the same compound, the “effect on IL-17A cytokine expression” value ([1]; Th0 and Th17) was “inhibited”, the “effect on IL-17F cytokine expression” value ([1]; Th0 and Th17) was “inhibited” and the “effect on IL-22 cytokine expression” value ([1]; Th0 and Th17) was “inhibited”. The “effect on IL-22 cytokine expression, statistical significance” value ([1]; Th0 and Th17, 0.1 μM and 1 μM BMS-986165) was “significantly lowered”, the “inhibition of TNF-α levels, statistical significance” value ([1]; Th0 and Th17, 1 μM BMS-986165) was “significant” and the “effect on IL-17F, statistical significance” value ([1]; Th0 and Th17, 0.1 and 1 μM BMS-986165) was “significantly reduced”. The “effect on IL-22 cytokine expression” value ([1]; Th17, 0.001 μM BMS-986165) was “no effect”, the “increase in TNF-α production” value ([1]; Th17, 0.01 μM BMS-986165) was 19% and the “increase of GM-CSF” value ([1]; Th17, 0.01 μM BMS-986165) was 41%. The “CCL20 % of Control” value [1, 4] was 121.7 % of Control, the “GM-CSF % of Control” value [1, 4] was 141.1 % of Control and the “IFN-γ % of Control” value [1, 4] was 114.2 % of Control. The “IL-1β % of Control” value [1, 4] was 94.2 % of Control, the “IL-2 % of Control” value [1, 4] was 128.5 % of Control and the “IL-4 % of Control” value [1, 4] was 126.5 % of Control. The “IL-5 % of Control” value [1, 4] was 144.3 % of Control, the “IL-6 % of Control” value [1, 4] was 96.8 % of Control and the “IL-10 % of Control” value [1, 4] was 78.4 % of Control. For the same compound, the “IL-13 % of Control” value [1, 4] was 158.1 % of Control, the “IL-17A % of Control” value [1, 4] was 97.7 % of Control and the “IL-17F % of Control” value [1, 4] was 73.6 % of Control. The “IL-21 % of Control” value [1, 4] was 91.5 % of Control, the “IL-22 % of Control” value [1, 4] was 83.3 % of Control and the “IL-23 % of Control” value [1, 4] was 93.8 % of Control. For the same compound, the “TNF-α % of Control” value [1, 4] was 118.5 % of Control, the “inhibition of IL-22 cytokine expression” value [1, 4] was 17% and the IL-17A levels ([1]; Th17, 0.01 μM BMS-986165 (combination: + 1 μM apremilast), control 532 pg/mL) was 519 pg/mL. The “increase in TNF-α levels, statistical significance” value ([1]; Th17, 0.1 μM BMS-986165) was “significant”, the “increase in TNF-α production” value ([1]; Th17, 0.1 μM BMS-986165) was 77% and the “increase of GM-CSF” value ([1]; Th17, 0.1 μM BMS-986165) was 139%. The “CCL20 % of Control” value [1, 5] was 157.8 % of Control, the “GM-CSF % of Control” value [1, 5] was 239.3 % of Control and the “IFN-γ % of Control” value [1, 5] was 74.7 % of Control. The “IL-1β % of Control” value [1, 5] was 89.0 % of Control, the “IL-2 % of Control” value [1, 5] was 250.3 % of Control and the “IL-4 % of Control” value [1, 5] was 161.9 % of Control. For the same compound, the “IL-5 % of Control” value [1, 5] was 249.9 % of Control, the “IL-6 % of Control” value [1, 5] was 112.7 % of Control and the “IL-10 % of Control” value [1, 5] was 46.6 % of Control. For the same compound, the “IL-13 % of Control” value [1, 5] was 287.5 % of Control, the “IL-17A % of Control” value [1, 5] was 79.2 % of Control and the “IL-17F % of Control” value [1, 5] was 30.0 % of Control. The “IL-21 % of Control” value [1, 5] was 86.3 % of Control, the “IL-22 % of Control” value [1, 5] was 39.8 % of Control and the “IL-23 % of Control” value [1, 5] was 96.3 % of Control. The “TNF-α % of Control” value [1, 5] was 177.4 % of Control, the “inhibition of IL-22 cytokine expression” value [1, 5] was 60% and the IL-17A levels ([1]; Th17, 0.1 μM BMS-986165 (combination: + 1 μM apremilast), control 532 pg/mL) was 428 pg/mL. The “increase of GM-CSF” value ([1]; Th17, 1 μM BMS-986165) was 104%, the “inhibition of IL-22 cytokine expression” value ([1]; Th17, 1 μM BMS-986165) was 70% and the IL-17A levels ([1]; Th17, 1 μM BMS-986165 (combination: + 1 μM apremilast), control 532 pg/mL) was 383 pg/mL. For the same compound, the “inhibition of IL-17A expression” value ([1]; similar under Th0 and Th17, 0.001-1 μM BMS-986165) was 10-25%, the “effect on GM-CSF production” value ([1]; whole blood, Th0 and Th17) was “increased” and the “effect on TNF-α production” value ([1]; whole blood, Th0 and Th17) was “increased”.
